This assay concerns the target human recombinant CRF-1 receptor (Homo sapiens (Human), UniProt P34998). The experiment in a line: CRF-1 receptor antagonism, HTRF cAMP assay in CHO cells in the presence of 1 nM CRF. It is filed as cell-based. The note with it: CHO cells expressing human recombinant CRF-1. Here is the method:
The CRF-1 or CRF-2a receptor antagonistic activity of the agents of the invention has been determined in vitro in the following assay:
Chinese hamster ovary (CHO) cells expressing either the human recombinant CRF-1 or CRF-2a receptors (Chen et al., Proc Natl Acad Sci USA 90, 8967-8971, 1993; Liaw et al., Endocrinology 137, 72-77, 1996) are propagated in Dulbecco's modified Eagle medium supplemented with 10% foetal calf serum, non-essential amino acids, 100 U/ml penicillin, 100 mg/l streptomycin and 1 g/l geneticin (G418). For cyclic AMP determinations the Homogeneous Time-Resolved Fluoresce (HTRF) cAMP dynamic 2 kit (Cisbio International, France) was used as per manufacturers' instructions. CHO cells, previously cryopreserved, were thawed, centrifuged for 7 mins at 1200 rpm and resuspended in serum free media, then pipetted out onto clear bottomed black tissue culture treated 384-well microtitre plates (Corning Inc, US) at 2,000 cells per well. Compounds of the invention, prepared in DMSO, and subsequently diluted 50 fold in assay buffer (1× Hanks balanced salt solution, 0.2% (w/v) bovine serum albumin, 1.7 mM isobutylmethylxanthine and 10 mM Hepes, pH7.4) are then added onto the cell containing plate where a further 2 fold dilution is performed and incubated for 15 min. Following incubation, buffer containing a 5 times final concentration of agonist is added to the plate and incubated for 30 min. Finally, d2 dye labelled cAMP and cryptate labeled anti-cAMP antibody, both made in lysis buffer, are added to the plate followed by a settling period of 1 hour. During the settling period cAMP produced by the cells competes with the d2 labelled cAMP for the anti-cAMP cryptate. The plate is read on the Pherastar (BMG, Germany). […] Values represented by a change in arbitrary fluorescence units are converted into cAMP concentrations by use of a standard curve the reagents for which are supplied with the kit. […] IC50 values of antagonists are calculated by fitting the percent inhibition of the effect of CRF by increasing concentrations of the antagonists. […]
(In general: TR-FRET usually uses a lanthanide donor and a delayed reading to cut background.)

The term IC50 denotes the concentration that gives 50% inhibition.

Sequence of human recombinant CRF-1 receptor (P34998 24-415): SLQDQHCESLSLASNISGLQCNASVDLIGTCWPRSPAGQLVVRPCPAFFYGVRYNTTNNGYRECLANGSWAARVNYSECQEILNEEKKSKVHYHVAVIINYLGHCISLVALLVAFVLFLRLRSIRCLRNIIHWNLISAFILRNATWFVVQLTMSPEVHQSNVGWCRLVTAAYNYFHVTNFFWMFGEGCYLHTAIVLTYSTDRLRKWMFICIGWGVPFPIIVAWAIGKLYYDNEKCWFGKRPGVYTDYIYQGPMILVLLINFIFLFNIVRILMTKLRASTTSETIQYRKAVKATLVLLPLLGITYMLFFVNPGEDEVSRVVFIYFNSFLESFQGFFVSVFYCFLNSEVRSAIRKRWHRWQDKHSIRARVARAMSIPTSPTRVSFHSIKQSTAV

Consider `Cc1cc(N2CCNC2=O)nn1C[C@H]1CC[C@H](NC(=O)c2cc(C(F)(F)F)ccc2Cl)CC1` [Example 21.5, 2-Chloro-N-{4-[5-methyl-3-(2-oxo-imi-dazolidin-1-yl)-pyrazol-1-ylmethyl]-cyclohexyl}-5-trifluoromethyl-ben zamide], for which the IC50 was 157 nM.

As to `Cc1nn(C[C@H]2CC[C@H](NC(=O)c3cc(C(F)(F)F)ccc3Cl)CC2)c(C)c1C` [Example 21.11], the concentration for half-maximal inhibition (IC50) came out at 140 nM.

“2-Chloro-N-(2RS-methyl-4-phenylaminomethyl-cyclohexyl)-5-trifluoromethyl-benzamide [Example 16]”: the IC50 stood at 51 nM.

These data come from patent US8614213B2 (Novartis AG, priority 2008, dated 2013).
